Measurements from patent US6955873B1, “Diagnosis and treatment system for reward deficiency syndrome (RDS) and related behaviors” (priority 1999, dated 2005).
Entries after “also recorded” stand apart in the source; their conditions may differ. Like-named read-outs stand apart in the source and are kept apart here.

Tests used:
[1] = tested on: spontaneously hypertensive rats (SHR); test: Blood pressure in spontaneously hypertensive rats (SHR); settings: rat, in vivo
Excerpt: D-Phenylalanine was able to lower systolic blood pressure of these rats close to normal (average drop of 36.7 mm Hg). It is noteworthy that this effect is blocked by the narcotic antagonist and the effect on blood pressure is synergistic with the beta-blocker popranolol. Even more important is that the lowering of blood pressure by d-phenylalanine lasted several days.

animals and humans = settings: cited from earlier work
humans = test: Blood pressure in humans; assay type: in vivo, human; settings: single dose
animals and man = settings: cited from earlier work
pain patients = settings: cited from earlier work
mice = settings: animal tests; cited from earlier work
mu-opioid receptor = mu-opioid receptor (Mus musculus, UniProt P42866); settings: spinal cord, wild-type mice; cited from earlier work
Sequence of mu-opioid receptor (P42866 whole entry): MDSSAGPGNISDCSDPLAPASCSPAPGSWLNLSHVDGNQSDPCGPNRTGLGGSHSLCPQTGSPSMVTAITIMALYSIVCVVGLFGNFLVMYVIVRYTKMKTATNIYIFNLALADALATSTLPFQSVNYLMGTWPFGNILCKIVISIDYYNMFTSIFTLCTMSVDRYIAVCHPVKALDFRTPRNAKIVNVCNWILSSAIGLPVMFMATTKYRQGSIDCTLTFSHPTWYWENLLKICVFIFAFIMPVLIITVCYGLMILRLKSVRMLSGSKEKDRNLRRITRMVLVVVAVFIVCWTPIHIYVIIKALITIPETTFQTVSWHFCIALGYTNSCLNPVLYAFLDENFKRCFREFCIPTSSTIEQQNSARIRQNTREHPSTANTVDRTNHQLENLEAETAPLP

animals = settings: cited from earlier work
neurons = settings: cited from earlier work
[2] = cited from earlier work
MAO = settings: cited from earlier work
5-HTP decarboxylase = 5-HTP decarboxylase (Homo sapiens, UniProt P20711); settings: cited from earlier work
Sequence of 5-HTP decarboxylase (P20711 whole entry): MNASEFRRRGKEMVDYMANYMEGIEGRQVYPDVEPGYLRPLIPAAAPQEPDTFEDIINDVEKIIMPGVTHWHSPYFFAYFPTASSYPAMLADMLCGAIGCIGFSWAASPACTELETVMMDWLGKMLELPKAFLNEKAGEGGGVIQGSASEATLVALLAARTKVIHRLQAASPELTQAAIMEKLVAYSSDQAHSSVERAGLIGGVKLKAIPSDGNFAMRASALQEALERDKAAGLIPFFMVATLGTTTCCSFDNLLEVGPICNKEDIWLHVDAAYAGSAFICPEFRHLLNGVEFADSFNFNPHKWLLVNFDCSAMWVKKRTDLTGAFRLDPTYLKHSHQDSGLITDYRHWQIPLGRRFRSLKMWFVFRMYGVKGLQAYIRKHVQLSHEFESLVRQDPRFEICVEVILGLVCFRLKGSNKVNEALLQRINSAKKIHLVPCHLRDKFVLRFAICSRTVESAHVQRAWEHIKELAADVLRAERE

COMT = COMT (Homo sapiens, UniProt P21964); settings: cited from earlier work
Sequence of COMT (P21964 whole entry, species assumed): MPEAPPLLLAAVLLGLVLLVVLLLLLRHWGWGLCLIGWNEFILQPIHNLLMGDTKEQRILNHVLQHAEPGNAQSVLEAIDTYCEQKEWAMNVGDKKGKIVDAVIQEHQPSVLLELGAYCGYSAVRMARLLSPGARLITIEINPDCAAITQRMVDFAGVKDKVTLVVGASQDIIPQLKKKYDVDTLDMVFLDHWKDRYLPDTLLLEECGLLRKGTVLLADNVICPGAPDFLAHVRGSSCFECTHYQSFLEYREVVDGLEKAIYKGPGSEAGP

[3] = tested on: Blood Brain Barrier (BBB); settings: mice, vs saline controls, cited from earlier work
brain of mice = settings: cited from earlier work
PMDD patients = settings: 1200 mg of calcium; cited from earlier work
over-eating patients [4] = settings: 400 mcg vs placebo, cited from earlier work
over-eating patients [5] = settings: 200 and 400 mcg, compared with placebo; cited from earlier work
young obese women = settings: cited from earlier work
[6] = tested on: obese subjects genotyped for the dopamine D2 receptor gene (DRD2); test: Chromium picolinate body composition response as a function of DRD2 Taq1 A1 genotype; assay type: in vivo, human
Excerpt: In order to resolve the issue of non-responders, the inventor decided to test the hypothesis that typing the obese patients by genotyping the DRD2 gene prior to treatment with CrP would result in a differential treatment outcome. […] One of us (KB) predicted carriers of the DRD2 A2 allele would retain the positive metabolic effects of P, but in contrast the DRD2 A1 carriers, because there is a proclivity to increased carbohydrate binging, would possibly mask the metabolic effects of CrP on weight loss and change in body fat attenuating any positive effects. One prophetic example as described earlier (see page 48):
The inventor genotyped 130 obese subjects for the dopamine D2 receptor gene (DRD2) utilizing standard PCR techniques. The subjects were assessed for scale weight and for percent body fat using dual energy X-ray absorptiometry (DEXAR). The subjects were divided into matched placebo and chromium picolinate (CrP) groups (400μg. per day). The sample was separated into two independent groups; those with either an A1/A1 or A1/A2 allele and those with only the A2/A2 allelic pattern. Each of these groups was tested separately for differences between placebo and treatment means for a variety of measures of weight change. These measures consisted of calculations of the percent of fat weight change; the change in fat weight; the change in body weight; the change in free mass, the percent change of fat weight; the body composition index; and the body weight change in kilograms.

[7] = tested on: obese subjects genotyped for the dopamine D2 receptor gene (DRD2); settings: 400 mcg of CrP/day, cited from earlier work
[8] = tested on: patients following weight reduction; settings: after six months; cited from earlier work
[9] = tested on: patients with age-related memory disorders; settings: certain patients; not substantiated by clinical trials; cited from earlier work

Molecule: N[C@H](Cc1ccccc1)C(=O)O [D-phenylalanine]
- average drop of systolic blood pressure [1]: 36.7 mm Hg
- duration of lowering of blood pressure [1]: several days
- effect on blood pressure in presence of narcotic antagonist [1]: blocked
- effect on blood pressure with the beta-blocker popranolol [1]: synergistic
- heart rate [1]: no change
- systolic and diastolic blood pressure [1]: significantly lowered
- alcohol intake (animals and humans): significantly lowered
- effect on blood pressure in normotensive individuals (humans): no effect
- duration of blood pressure lowering (humans; humans): one or more days
- tolerance or addiction (animals and man; animals and man): without developing tolerance or addiction
- duration of analgesia (animals and man; humans): very long-lasting
- analgesia (animals and man; used separately, animals and man): excellent analgesia
- pain associated with osteo- and rheumatoid arthritis (pain patients; cross-over studies in humans): reduced pain
- analgesia in patients reactive to approved analgesic drugs including opiates (pain patients; double-blind studies): induced analgesia
- analgesic effects of acupuncture (pain patients; in vivo): enhance
- anti-inflammatory character (mice): exhibits anti-inflammatory character

Molecule: C[C@@H](NC(=O)[C@@H](N)Cc1ccc(O)cc1)C(=O)NCC(=O)N(C)[C@@H](Cc1ccccc1)C(=O)NCCO [DAMGO]
- [35S]GTPgammaS binding (mu-opioid receptor): concentration-dependent Increases

Molecule: C/C=C1\[C@H]2C=C(C)C[C@]1(N)c1ccc(=O)[nH]c1C2 [Huperzine A]
- difference between amounts effective for memory and learning and the non-toxic-effect dose (animals; behavioral studies in animals): 30-100 fold
- side effects (animals; dose of 2 micrograms/kg): no remarkable side effects
- glutamate-induced cellular death of neurons (neurons): blocked
- time active ([2]; dose of 2 micrograms/kg): six hours
- duration of action ([2]; in vivo): 3 h

Molecule: OC[C@H]1O[C@@H](OCCc2ccc(O)cc2)[C@H](O)[C@@H](O)[C@@H]1O [SAL, Salidosid]
- MAO activity (MAO): inhibit; also recorded: decreases MAO activity
- activity of 5-HTP decarboxylase (5-HTP decarboxylase): does not alter
- COMT activity (COMT): inhibit; also recorded: inhibits COMT activity
- increase of the rise in serotonin ([3]; SAL 30 mg/Kg with 5-HTP 100 mg/kg): 13%
- increase of the rise in exogenous DOPA ([3]; SAL 30 mg/Kg with L-Dopa 50 mg/kg): 26%
- disulfuram-induced decrease of NE in the brain (brain of mice; 30 mg/kg, animals): prevented
- decrease of content of 5-HT (brain of mice; 30 mg/kg): 15%
- decrease of content of NE (brain of mice; 30 mg/kg): 26%
- decrease of concentration of Dopamine (brain of mice; 100 mg/kg): 28%
- decrease of concentration of NE (brain of mice; 100 mg/kg): 20%
- decrease of concentration of serotonin (brain of mice; 100 mg/kg): 23%
- levels of epinephrine and DOPA (brain of mice; mouse, in vivo): did not alter

Molecule: [Ca+2] [calcium]
- rate of reported symptoms relative to placebo (PMDD patients): fifty percent

Molecule: Chromium Picolinate
- reduction in body fat (over-eating patients [4]; p < 0.001): greater reduction in body fat (p < 0.001), significantly
- weight lost (over-eating patients [4]; p < 0.001): group, 400 mcg CrP group lost significantly more
- body composition (over-eating patients [4]; p < 0.004): improve body composition (p < 0.004).
- body fat lost (over-eating patients [4]; p < 0.004): group, 400 mcg CrP group lost significantly more
- changes in Body Mass composition indicies (over-eating patients [5]): 200 and 400 mcg of CrP brought about significant
- weight gain (young obese women; CrP supplementation alone, 43 pts, 63 days): CrP supplementation resulted in significant weight
- weight loss (young obese women; exercise training combined with CrP supplementation): supplementation resulted in significant weight loss
- body weight change in kilograms, treatment vs placebo ([6]; A2/A2, p<0.012): significant
- change in fat weight, treatment vs placebo ([6]; A2/A2, p<0.041): significant
- percent change in weight, treatment vs placebo ([6]; A2/A2, p<0.044): significant
- responsiveness to the effects of CrP ([6]; DRD2 A2 allele carriers versus DRD2 A1 allele carriers, 400 ug per day): more responsive
- any parameter of weight change, treatment vs placebo ([6]; subjects possessing a DRD2 A1 allele): no significance
- changes in fat weight, body weight, percent change in weight, body weight changes in kgms ([7]; A1/A2 and A1/A1 carriers, listed as CrP): non-
- changes in fat weight, body weight, percent change in weight, body weight changes in kgms ([7]; A2/A2 group): changes in kgms were all significant in A2/A2 group,
- non-fat related weight loss [8]: lean body mass and avoided non-fat related weight

Molecule: Huperzine
- learning and memory [9]: improves learning and memory
